Here are results for 3 molecules from US20090118264A1, “Medicament having neovascularization promoting action” (Research Foundation Itsuu Laboratory, priority 2005, published 2009).

The test system of assay [1] is human umbilical vein endothelial cells and human skin fibroblasts. The assay can be described thus: Neovascularization in co-culture system of human umbilical vein endothelial cells and human skin fibroblasts (Neovascularization Kit), anti-CD31 immunostaining. Type of assay: cell-based. The protocol: The effect of LE135 on neovascularization was investigated by using a co-culture system of human umbilical vein endothelial cells and human skin fibroblasts (Neovascularization Kit, Kurabo Industries Ltd.). The vascular endothelial growth factor (VEGF) having a potent neovascularization action, added to 8 wells at a final concentration of 10 ng/ml, was used as positive control. Culture medium alone added to 8 wells without addition of the medicament was used as negative control. LE135 was added to the wells (8 wells for each group) at various concentrations, and culture was performed for 11 days. Immunostaining was performed by using anti-CD31 (PECAM1) antibodies directed to the vascular endothelial cells to determine the areas of luminal structures similar to blood vessels showing positive results and the numbers of branchings as an index of maturity of the formed luminal structures. The luminal structure areas and the numbers of branchings observed in the wells added with the medicament (LE135 or VEGF as the positive control) at various concentrations are shown in Table 1 in terms of relative values based on the luminal structure area and the number of branchings observed in the medicament-free wells as the negative control, which were taken as 100, respectively.
The effects of RAR antagonists other than LE135 on neovascularization were examined by using a co-culture system of human umbilical vein endothelial cells and human skin fibroblasts (Neovascularization Kit, Kurabo Industries Ltd.). The vascular endothelial growth factor (VEGF) having a potent neovascularization action added to wells at a final concentration of […] was used as positive control. Culture medium alone added to wells without addition of the medicament was used as negative control. Each compound was added at a concentration of 10^−9 mol/L, and culture was performed for 11 days. Immunostaining was performed by using anti-CD31 (PECAM1) antibodies directed to vascular endothelial cells to determine the areas of luminal structures similar to blood vessels showing positive results and the numbers of branchings as an index of maturity of the formed luminal structures. The luminal structure areas and the numbers of branchings observed in the wells added with the medicament at each given concentration are shown in the following table in terms of relative values based on the luminal structure area and the number of branchings observed in the medicament-free wells as the negative control, which were taken as 100, respectively.

The subject of assay [2] is mouse lower extremity ischemia model. As to the kind of experiment: Neovascularization experiment using mouse lower extremity ischemia model. Type of assay: in vivo, mice (C3H/HeNCrj). The protocol: The femoral arteries on one side of 24 to 36-week old wild-type male mice (C3H/HeNCrj) were ligated and separated to prepare lower extremity ischemia model mice. […] The blood flow ratio between the affected extremities and the normal extremities was determined by the laser Doppler method on the day before the operation and 1, 3, 4, 5, 7, 9, 12, 14, 16, 18, 21, 24 and 28 days after the operation. […] In order to detect vascular endothelial cells in muscle tissues of the affected extremities on 21st day after the operation, immunostaining was performed by using anti-CD31 (PECAM1) antibodies.

The test system of assay [3] is rabbit lower extremity ischemia model. As to the kind of experiment: Intramuscular administration to rabbit lower extremity ischemia model, angiography. Type of assay: in vivo, rabbits. The settings on record: 10^−8 M LE135 solution injected into femoral muscles, 3 times per week; 28th day from the ligature; compared with control group (FIG. 2). The protocol: The external iliac arteries on one side of rabbits were ligated and separated, and a 10^−8 M LE135 solution was injected into the femoral muscles on the same side to examine the neovascularization effect of the medicament. A solution of an organic solvent alone in the same amount as used for dissolution of LE135 was used as a negative control. The solutions were administered 3 times per week from the next day of the ligature. […] The blood vessels surrounded by the broken lines are considered to be collateral blood routes. In the figure, the white arrows* indicate the common iliac arteries.

Setting [4] is: Example 4: each compound 10^−9 mol/L, culture 11 days, relative value, negative control taken as 100, mean ± SD (Table 3).
The mark [5] stands for this setting: LE135 10^−9 M, culture 11 days, relative value, negative control taken as 100, mean ± SD (Table 1).
Where [6] appears, read: LE135 10^−10 M, culture 11 days, relative value, negative control taken as 100, mean ± SD.
Where [7] appears, read: LE135 10^−11 M, culture 11 days, relative value, negative control taken as 100, mean ± SD.

Read-outs that look alike come from different tables or passages of the source.

Take VEGF: in assay [1], the Number of branching turned out to be 154.20 ± 7.12 and the Number of branchings was found to be 321.50 ± 42.17. Further, the “Area (luminal structure area)” value in assay [1] (Example 4: VEGF final concentration 10 μg/ml, culture 11 days, relative value, negative control taken as 100 (Table 3)) was determined as 202.52 ± 18.40. Besides, the “Area (luminal structure area)” value in assay [1] (VEGF final concentration 10 ng/ml, culture 11 days, relative value, negative control taken as 100 (Table 1)) is listed as 134.88 ± 4.42.
Take `CN1c2cc3c(cc2N=C(c2ccc(C(=O)O)cc2)c2ccc4ccccc4c21)C(C)(C)CCC3(C)C` [LE540]: the “Blood vessel luminal structure area (in words)” value in assay [1] (Example 4: 10^−9 mol/L, versus negative control) is recorded as “significantly increased the blood vessel luminal structure area”. Also, in assay [1] (setting [4]), the “Area (luminal structure area)” value is recorded as 172.02 ± 22.00 and the Number of branchings was determined as 195.33 ± 24.49.
On to `CN1c2cc3c(cc2N=C(c2ccc(C(=O)O)cc2)c2ccccc21)C(C)(C)CCC3(C)C` [LE135, 4-(5H-7,8,9,10-tetrahydro-5,7,7,10,10-pentamethylbenzo[e]naphtho[2,3-b][1,4]diazepin-13-yl)benzoic acid], for which the “Area (luminal structure area)” value came out at 158.73 ± 6.89 in assay [1] (setting [4]), 112.52 ± 4.68 in assay [1] (setting [5]), 116.30 ± 5.69 in assay [1] (setting [6]) and 109.09 ± 4.89 in assay [1] (setting [7]). The same molecule gave a Number of branchings in assay [1] (setting [4]) of 170.09 ± 14.87. Also, the Number of branching in assay [1] (setting [5]) amounted to 150.31 ± 10.26; in assay [1] (setting [6]), 137.40 ± 9.48; in assay [1] (setting [7]), 118.70 ± 9.27. For the same molecule, the Promotion of neovascularization entry in assay [1] (concentrations of 10^−10 and 10^−9 M, versus negative control) was “significantly promoted neovascularization”. Moreover, in assay [2] (mice orally administered with 5 mg/kg of LE135, muscle tissues of affected extremities, 21st day after the operation), the “CD31-positive cell count per field (200×)” value is 21.63 ± 4.12 per field (200×). Further, the “Numbers of endothelial cells (CD31-positive cells), in words” value in assay [2] (muscle tissues of affected extremities, 21st day after the operation, compared with no medicament-administered group) was “significantly higher numbers of endothelial cells”. In addition, in assay [2] (orally 5 mg/kg of LE135, 28th day after the operation, about 30% in no medicament-administered mice), the “Necrosis or amputation in the lower extremities” value was “no mouse among the LE135-administered mice was observed to have necrosis or amputation”. The “Blood flow ratio between affected and normal extremities (laser Doppler method)” value in assay [2] (orally 5 mg/kg of LE135, up to 28 days after the operation, compared with no medicament-administered mice (FIG. 1)) is recorded as “Significant improvement of the blood flow”. Moreover, the “Formation of collateral blood routes (angiography)” value in assay [3] is given as “evidently better formation of collateral blood routes”.
